Literature values in patent publication US10653698B2, “Methods of improving myocardial performance in Fontan patients using udenafil compositions” (priority 2014, dated 2020).

Columns and labels:
[1] = tested on: patients with Fontan circulation; settings: short term, once daily dosing; cited from earlier work
[2] = tested on: children and young adults with single-ventricle physiology after the Fontan operation; settings: Shabanian et al. 2013; cited from earlier work

SMILES | exercise capacity [1] | ventilatory efficiency and oxygen saturation [1] | ventricular systolic elastance [2] | ventriculo-arterial coupling [2]
CN1CC(=O)N2[C@H](c3ccc4c(c3)OCO4)c3[nH]c4ccccc4c3C[C@@H]2C1=O [tadalafil] | unchanged | improved | – | –
CCCc1nn(C)c2c(=O)[nH]c(-c3cc(S(=O)(=O)N4CCN(C)CC4)ccc3OCC)nc12 [sildenafil] | – | – | increased | improved
